Measurements reported in patent US20130225424A1, “METHODS FOR DETERMINING RESPONSIVENESS TO A DRUG BASED UPON DETERMINATION OF RAS MUTATION AND/OR RAS AMPLIFICATION” (Targeted Molecular Diagnostics, LLC, priority 2010, published 2013).

Assays:
H460 cells = experiment: H460 tumors implanted in mice, cleaved caspase-3 staining; format: in vivo; conditions: H460 tumors approx. 500 mg; 130 mg/kg Q4Dx3 IP; harvested 10 days after treatment; cleaved caspase-3 stain
Text: Tumors were then harvested 10 days after treatment, fixed in formalin and stained for cleaved caspase-3. Next, bright-field pictures were taken at 40× (see, FIG. 4).

[1] = system: K-RAS mutant/amplified (NCI-H727 & NCI-H2009) NSCLC cells; experiment: Cyquant Direct proliferation assay, K-RAS mutant/amplified NSCLC cells; format: cell-based; conditions: 0-10 μM, 72 hours
Method: (§1) Additionally, a variety of NSCLC cell lines that were K-RAS mutant (A549, NCI-H460 & NCI-H23), K-RAS mutant/amplified (NCI-H727 & NCI-H2009) and K-RAS wild-type (Calu-3, NCI-H650 & NC-H661) NSCLC cells were plated in 96 well plates treated and treated 24 hours later with multiple concentrations of Methotrexate (0-10 μM). After an additional 72 hours cells were assayed for proliferation using the Invitrogen Cyquant Direct™ proliferation assay. IC50 (inhibitory concentration that kills 50% of cells) was determined using graphpad software. Cells were treated in triplicate and cell numbers were calculated as percent untreated control.

A549 cells = experiment: RT-PCR gene/protein expression after Methotrexate treatment, K-RAS mutant cells; format: cell-based; conditions: 0.1 μM, 72 hours after treatment, normalized to Beta-2-Macroglobulin
Method: (§2) Finally, expression of genes/proteins related to folate metabolism and cell cycle progression were examined in K-RAS mutant and K-RAS wild-type NSCLC cells with Methotrexate treatment and K-RAS overexpression or knockdown. Briefly, A549 cells were treated with Methotrexate at a concentration of 0.1 μM. 72 hours after treatment, total RNA was extracted from treated and untreated cells. RT-PCR was then performed on extracted RNA to determine gene expression of K-RAS, Dihydrofolate Reductase (DHFR), Thymidylate Synthase (TYMS) and E2F1. Gene expression was normalized to […] as an internal control.

[2] = system: K-RAS wild-type NSCLC cells; experiment: Gene/protein expression after Methotrexate treatment, K-RAS wild-type cells; format: cell-based
Method: as §2

[3] = system: K-RAS mutant (A549, NCI-H460 & NCI-H23) NSCLC cells; experiment: Cyquant Direct proliferation assay, K-RAS mutant NSCLC cells; format: cell-based; conditions: 0-10 μM, 72 hours
Method: as §1

[4] = system: K-RAS wild-type (Calu-3, NCI-H650 & NC-H661) NSCLC cells; experiment: Cyquant Direct proliferation assay, K-RAS wild-type NSCLC cells; format: cell-based; conditions: K-RAS wild-type cells Calu-3, NCI-H650 & NC-H661; 0-10 μM; 72 hours
Method: as §1

## CN(Cc1cnc2nc(N)nc(N)c2n1)c1ccc(C(=O)N[C@@H](CCC(=O)O)C(=O)O)cc1 [Methotrexate]
H460 cells
  sensitivity (responsiveness) of tumors with K-Ras mutant cells: sensitive
[1]
  sensitivity to Methotrexate (proliferation): sensitive
A549 cells
  Expression of DHFR, TS, E2F-1, phosphorylated Rb and mutant K-RAS: decreased
[2]
  Expression of DHFR, TS, E2F-1, phosphorylated Rb and mutant K-RAS decreased: not
[3]
  sensitivity to Methotrexate (proliferation): sensitive
[4]
  sensitivity to Methotrexate (proliferation): not sensitive
